Measured values: ChEMBL document CHEMBL4507283, “Data for DCP probe BI-1935” (2021)

Assays:
[1] = system: Mast/stem cell growth factor receptor Kit (Homo sapiens), P10721 [A829P]; conditions: Compound concentration 1000.0 nM
[2] = molecular target: Dual specificity protein kinase CLK1 (Homo sapiens) (UniProt P49759); conditions: Compound concentration 1000.0 nM
[3] = molecular target: Cyclin-dependent kinase 9 (Homo sapiens) (UniProt P50750); conditions: Compound concentration 1000.0 nM
[4] = system: Receptor-type tyrosine-protein kinase FLT3 (Homo sapiens), P36888 [UNDEFINED MUTATION]; conditions: Compound concentration 1000.0 nM
Receptor-type tyrosine-protein kinase FLT3 (Homo sapiens), P36888 [UNDEFINED MUTATION], sequence (P36888 whole entry, looked up, change not shown): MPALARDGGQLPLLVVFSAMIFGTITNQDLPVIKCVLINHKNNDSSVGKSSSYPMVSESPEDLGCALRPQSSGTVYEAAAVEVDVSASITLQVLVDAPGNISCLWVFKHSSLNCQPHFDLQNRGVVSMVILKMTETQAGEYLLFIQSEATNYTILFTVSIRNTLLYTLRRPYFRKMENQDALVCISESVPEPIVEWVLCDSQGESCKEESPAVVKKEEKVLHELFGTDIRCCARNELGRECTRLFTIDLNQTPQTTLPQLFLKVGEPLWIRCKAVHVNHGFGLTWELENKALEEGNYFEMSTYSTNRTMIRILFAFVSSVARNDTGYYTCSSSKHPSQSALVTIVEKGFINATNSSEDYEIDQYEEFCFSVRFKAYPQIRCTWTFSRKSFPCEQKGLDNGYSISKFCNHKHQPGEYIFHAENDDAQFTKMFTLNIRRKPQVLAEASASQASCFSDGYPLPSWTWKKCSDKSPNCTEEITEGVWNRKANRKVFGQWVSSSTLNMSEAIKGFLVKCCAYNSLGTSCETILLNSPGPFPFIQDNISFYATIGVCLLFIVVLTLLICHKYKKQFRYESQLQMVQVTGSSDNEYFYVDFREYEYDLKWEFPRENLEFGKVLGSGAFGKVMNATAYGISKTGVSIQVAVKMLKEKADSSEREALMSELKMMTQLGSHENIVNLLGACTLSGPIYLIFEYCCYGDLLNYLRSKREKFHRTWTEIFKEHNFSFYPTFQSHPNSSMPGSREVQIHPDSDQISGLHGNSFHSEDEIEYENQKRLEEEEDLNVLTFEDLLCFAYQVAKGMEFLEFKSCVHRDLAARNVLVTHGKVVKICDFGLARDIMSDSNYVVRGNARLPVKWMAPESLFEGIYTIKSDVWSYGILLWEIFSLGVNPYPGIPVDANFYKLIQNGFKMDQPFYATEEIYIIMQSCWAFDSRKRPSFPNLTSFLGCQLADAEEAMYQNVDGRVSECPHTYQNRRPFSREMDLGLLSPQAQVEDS

[5] = molecular target: Sodium-dependent noradrenaline transporter (Homo sapiens) (UniProt P23975); conditions: Compound concentration 10.0 uM
[6] = molecular target: Insulin receptor-related protein (Homo sapiens) (UniProt P14616); conditions: Compound concentration 1000.0 nM
[7] = molecular target: Serine/threonine-protein kinase PAK 3 (Homo sapiens) (UniProt O75914); conditions: Compound concentration 1000.0 nM
[8] = molecular target: Ribosomal protein S6 kinase alpha-4 (Homo sapiens) (UniProt O75676); conditions: Compound concentration 1000.0 nM
[9] = molecular target: Dual specificity protein kinase CLK4 (Homo sapiens) (UniProt Q9HAZ1); conditions: Compound concentration 1000.0 nM
[10] = molecular target: Serotonin 2 (5-HT2) receptor (Rattus norvegicus) (UniProt P30994+P08909+P14842); experiment: 5HT2/R Eurofins-Panlabs selectivity data (BI); type: protein assay; conditions: Compound concentration 10.0 uM
[11] = molecular target: Ephrin type-B receptor 6 (Homo sapiens) (UniProt O15197); conditions: Compound concentration 1000.0 nM
[12] = molecular target: Calcium/calmodulin-dependent protein kinase kinase 1 (Homo sapiens) (UniProt Q8N5S9); conditions: Compound concentration 1000.0 nM
[13] = molecular target: Vascular endothelial growth factor receptor 1 (Homo sapiens) (UniProt P17948); conditions: Compound concentration 1000.0 nM
[14] = molecular target: Serine/threonine-protein kinase Nek3 (Homo sapiens) (UniProt P51956); conditions: Compound concentration 1000.0 nM
[15] = system: Phosphatidylinositol 4,5-bisphosphate 3-kinase catalytic subunit alpha isoform (Homo sapiens), P42336 [M1043I]; conditions: Compound concentration 1000.0 nM
[16] = molecular target: LIM domain kinase 1 (Homo sapiens) (UniProt P53667); conditions: Compound concentration 1000.0 nM
[17] = molecular target: Fibroblast growth factor receptor 2 (Homo sapiens) (UniProt P21802); conditions: Compound concentration 1000.0 nM
[18] = molecular target: NUAK family SNF1-like kinase 2 (Homo sapiens) (UniProt Q9H093); conditions: Compound concentration 1000.0 nM
NUAK family SNF1-like kinase 2 (Homo sapiens), sequence (Q9H093 whole entry): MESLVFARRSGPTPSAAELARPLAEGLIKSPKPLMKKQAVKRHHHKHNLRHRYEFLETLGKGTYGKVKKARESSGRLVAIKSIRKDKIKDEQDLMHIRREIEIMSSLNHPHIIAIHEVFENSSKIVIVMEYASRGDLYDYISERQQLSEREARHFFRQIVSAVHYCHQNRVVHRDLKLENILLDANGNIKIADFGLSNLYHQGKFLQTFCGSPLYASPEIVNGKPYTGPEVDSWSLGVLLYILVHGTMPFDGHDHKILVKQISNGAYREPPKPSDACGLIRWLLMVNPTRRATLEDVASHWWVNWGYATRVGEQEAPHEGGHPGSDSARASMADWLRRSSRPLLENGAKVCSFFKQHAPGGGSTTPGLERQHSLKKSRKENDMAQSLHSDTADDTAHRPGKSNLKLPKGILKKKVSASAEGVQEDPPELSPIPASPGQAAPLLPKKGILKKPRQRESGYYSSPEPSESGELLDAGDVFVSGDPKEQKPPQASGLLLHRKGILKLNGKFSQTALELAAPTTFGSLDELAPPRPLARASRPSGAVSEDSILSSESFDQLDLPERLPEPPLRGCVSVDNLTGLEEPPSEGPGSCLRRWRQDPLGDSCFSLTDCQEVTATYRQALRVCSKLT

[19] = molecular target: Activin receptor type-1B (Homo sapiens) (UniProt P36896); conditions: Compound concentration 1000.0 nM
Activin receptor type-1B (Homo sapiens), sequence (P36896 whole entry): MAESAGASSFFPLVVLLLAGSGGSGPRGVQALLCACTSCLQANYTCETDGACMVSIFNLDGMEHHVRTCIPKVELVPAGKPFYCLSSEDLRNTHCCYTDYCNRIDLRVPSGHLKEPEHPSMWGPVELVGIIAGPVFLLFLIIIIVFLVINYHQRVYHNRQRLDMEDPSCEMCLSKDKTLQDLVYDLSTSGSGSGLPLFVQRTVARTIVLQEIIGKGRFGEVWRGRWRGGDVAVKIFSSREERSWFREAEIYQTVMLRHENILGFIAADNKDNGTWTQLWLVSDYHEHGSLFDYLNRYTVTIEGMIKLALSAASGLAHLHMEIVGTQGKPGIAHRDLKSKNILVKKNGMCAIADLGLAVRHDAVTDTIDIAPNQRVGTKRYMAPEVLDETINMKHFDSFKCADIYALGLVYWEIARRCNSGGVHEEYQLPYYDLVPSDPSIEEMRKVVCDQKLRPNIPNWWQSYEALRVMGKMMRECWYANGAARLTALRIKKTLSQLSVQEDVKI

[20] = molecular target: Myosin-IIIb (Homo sapiens) (UniProt Q8WXR4); conditions: Compound concentration 1000.0 nM
[21] = molecular target: Histamine H1 receptor (Homo sapiens) (UniProt P35367); conditions: Compound concentration 10.0 uM
[22] = molecular target: Dual specificity mitogen-activated protein kinase kinase 4 (Homo sapiens) (UniProt P45985); conditions: Compound concentration 1000.0 nM
Dual specificity mitogen-activated protein kinase kinase 4 (Homo sapiens), sequence (P45985 whole entry): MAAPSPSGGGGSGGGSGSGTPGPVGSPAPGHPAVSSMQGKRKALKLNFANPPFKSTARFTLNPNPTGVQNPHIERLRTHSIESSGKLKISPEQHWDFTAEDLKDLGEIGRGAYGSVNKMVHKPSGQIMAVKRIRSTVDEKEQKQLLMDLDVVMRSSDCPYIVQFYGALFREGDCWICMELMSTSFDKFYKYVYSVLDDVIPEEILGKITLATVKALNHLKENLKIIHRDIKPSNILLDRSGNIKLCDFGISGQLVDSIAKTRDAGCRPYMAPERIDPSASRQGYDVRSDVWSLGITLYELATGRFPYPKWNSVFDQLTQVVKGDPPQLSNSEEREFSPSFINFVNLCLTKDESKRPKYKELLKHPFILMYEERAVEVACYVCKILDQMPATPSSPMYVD

[23] = molecular target: Calcium/calmodulin-dependent protein kinase type II subunit delta (Homo sapiens) (UniProt Q13557); conditions: Compound concentration 1000.0 nM
[24] = molecular target: Urotensin-2 receptor (Homo sapiens) (UniProt Q9UKP6); experiment: UROTENSIN_II Eurofins-Panlabs selectivity data (BI); conditions: Compound concentration 10.0 uM
[25] = molecular target: SRSF protein kinase 1 (Homo sapiens) (UniProt Q96SB4); conditions: Compound concentration 1000.0 nM
[26] = molecular target: Tyrosine-protein kinase FRK (Homo sapiens) (UniProt P42685); conditions: Compound concentration 1000.0 nM
[27] = molecular target: Calcium-dependent protein kinase 1 (Plasmodium falciparum) (UniProt P62344); conditions: Compound concentration 1000.0 nM
[28] = molecular target: Muscarinic acetylcholine receptor M2 (Homo sapiens) (UniProt P08172); conditions: Compound concentration 10.0 uM
[29] = molecular target: Phosphatidylinositol 5-phosphate 4-kinase type-2 beta (Homo sapiens) (UniProt P78356); conditions: Compound concentration 1000.0 nM
[30] = molecular target: Dual specificity protein kinase CLK3 (Homo sapiens) (UniProt P49761); conditions: Compound concentration 1000.0 nM
[31] = molecular target: 3-phosphoinositide-dependent protein kinase 1 (Homo sapiens) (UniProt O15530); conditions: Compound concentration 1000.0 nM
[32] = molecular target: Mitogen-activated protein kinase 14 (Homo sapiens) (UniProt Q16539); conditions: Compound concentration 1000.0 nM
[33] = molecular target: BMP-2-inducible protein kinase (Homo sapiens) (UniProt Q9NSY1); conditions: Compound concentration 1000.0 nM
BMP-2-inducible protein kinase (Homo sapiens), sequence (Q9NSY1 whole entry, looked up): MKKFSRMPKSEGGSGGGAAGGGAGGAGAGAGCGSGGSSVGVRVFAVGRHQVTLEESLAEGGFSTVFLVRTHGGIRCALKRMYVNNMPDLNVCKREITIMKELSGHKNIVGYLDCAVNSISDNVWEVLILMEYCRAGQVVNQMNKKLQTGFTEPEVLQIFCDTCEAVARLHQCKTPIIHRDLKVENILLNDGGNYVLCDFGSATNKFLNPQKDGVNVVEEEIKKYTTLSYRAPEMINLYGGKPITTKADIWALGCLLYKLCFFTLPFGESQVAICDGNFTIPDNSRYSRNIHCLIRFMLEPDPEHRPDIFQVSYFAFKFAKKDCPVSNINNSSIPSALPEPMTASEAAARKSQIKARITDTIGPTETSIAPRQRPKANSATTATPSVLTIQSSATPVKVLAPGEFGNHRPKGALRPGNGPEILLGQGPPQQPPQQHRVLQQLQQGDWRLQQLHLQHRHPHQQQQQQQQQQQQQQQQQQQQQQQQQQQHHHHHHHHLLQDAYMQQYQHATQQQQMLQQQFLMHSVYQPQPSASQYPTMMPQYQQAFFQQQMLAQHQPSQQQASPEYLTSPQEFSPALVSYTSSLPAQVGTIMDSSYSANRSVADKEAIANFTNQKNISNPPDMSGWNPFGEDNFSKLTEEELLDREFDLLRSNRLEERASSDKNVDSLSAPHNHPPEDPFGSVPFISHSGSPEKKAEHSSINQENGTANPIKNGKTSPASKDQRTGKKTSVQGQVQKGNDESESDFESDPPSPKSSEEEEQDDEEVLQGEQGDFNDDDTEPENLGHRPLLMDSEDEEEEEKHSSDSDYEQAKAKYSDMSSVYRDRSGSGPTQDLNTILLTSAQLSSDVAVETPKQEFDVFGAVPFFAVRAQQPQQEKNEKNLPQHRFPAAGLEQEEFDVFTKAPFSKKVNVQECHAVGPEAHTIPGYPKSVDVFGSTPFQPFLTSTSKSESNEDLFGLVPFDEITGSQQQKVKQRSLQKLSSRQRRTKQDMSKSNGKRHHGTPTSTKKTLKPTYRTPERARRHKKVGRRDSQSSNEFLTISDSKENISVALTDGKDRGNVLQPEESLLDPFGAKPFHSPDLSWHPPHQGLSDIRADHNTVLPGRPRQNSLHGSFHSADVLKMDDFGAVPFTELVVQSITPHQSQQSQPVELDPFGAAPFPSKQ

[34] = molecular target: RAF proto-oncogene serine/threonine-protein kinase (Homo sapiens) (UniProt P04049); conditions: Compound concentration 1000.0 nM
[35] = molecular target: Casein kinase I isoform epsilon (Homo sapiens) (UniProt P49674); conditions: Compound concentration 1000.0 nM
[36] = system: Epidermal growth factor receptor (Homo sapiens), P00533 [UNDEFINED MUTATION]; conditions: Compound concentration 1000.0 nM
[37] = molecular target: Serine/threonine-protein kinase TNNI3K (Homo sapiens) (UniProt Q59H18); conditions: Compound concentration 1000.0 nM
Serine/threonine-protein kinase TNNI3K (Homo sapiens), sequence (Q59H18 whole entry): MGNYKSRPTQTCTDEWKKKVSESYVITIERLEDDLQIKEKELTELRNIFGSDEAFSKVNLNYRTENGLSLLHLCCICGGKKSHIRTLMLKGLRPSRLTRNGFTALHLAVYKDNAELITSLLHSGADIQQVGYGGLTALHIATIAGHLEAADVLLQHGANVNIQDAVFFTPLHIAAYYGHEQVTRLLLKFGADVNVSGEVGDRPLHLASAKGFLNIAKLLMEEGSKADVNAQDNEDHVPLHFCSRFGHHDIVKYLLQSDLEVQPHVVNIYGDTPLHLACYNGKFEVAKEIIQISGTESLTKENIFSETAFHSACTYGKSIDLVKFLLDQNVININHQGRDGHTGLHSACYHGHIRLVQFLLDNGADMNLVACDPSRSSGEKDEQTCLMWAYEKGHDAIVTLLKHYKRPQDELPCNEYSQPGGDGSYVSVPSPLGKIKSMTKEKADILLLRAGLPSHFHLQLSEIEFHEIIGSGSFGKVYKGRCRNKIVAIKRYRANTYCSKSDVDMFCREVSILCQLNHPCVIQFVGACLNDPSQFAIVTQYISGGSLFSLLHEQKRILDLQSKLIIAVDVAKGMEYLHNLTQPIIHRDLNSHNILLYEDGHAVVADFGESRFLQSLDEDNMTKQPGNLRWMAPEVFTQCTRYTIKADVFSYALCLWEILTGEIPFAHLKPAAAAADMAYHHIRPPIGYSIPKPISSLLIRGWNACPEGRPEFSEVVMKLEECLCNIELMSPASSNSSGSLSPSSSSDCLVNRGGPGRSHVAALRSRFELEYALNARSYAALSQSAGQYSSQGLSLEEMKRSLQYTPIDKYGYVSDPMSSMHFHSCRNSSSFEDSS

[38] = molecular target: Mitogen-activated protein kinase kinase kinase 5 (Homo sapiens) (UniProt Q99683); conditions: Compound concentration 1000.0 nM
[39] = molecular target: Receptor-type tyrosine-protein kinase FLT3 (Homo sapiens) (UniProt P36888); conditions: Compound concentration 1000.0 nM
Receptor-type tyrosine-protein kinase FLT3 (Homo sapiens), sequence (P36888 whole entry): as the sequence (P36888 whole entry, looked up, change not shown) above

[40] = molecular target: Wee1-like protein kinase 2 (Homo sapiens) (UniProt P0C1S8); conditions: Compound concentration 1000.0 nM
[41] = molecular target: Maternal embryonic leucine zipper kinase (Homo sapiens) (UniProt Q14680); conditions: Compound concentration 1000.0 nM
[42] = system: Phosphatidylinositol 4,5-bisphosphate 3-kinase catalytic subunit alpha isoform (Homo sapiens), P42336 [C420R]; conditions: Compound concentration 1000.0 nM
[43] = system: Phosphatidylinositol 4,5-bisphosphate 3-kinase catalytic subunit alpha isoform (Homo sapiens), P42336 [H1047Y]; conditions: Compound concentration 1000.0 nM
[44] = molecular target: Serine/threonine-protein kinase DCLK1 (Homo sapiens) (UniProt O15075); conditions: Compound concentration 1000.0 nM

Dual specificity protein kinase CLK1 (Homo sapiens), sequence (P49759 whole entry, looked up): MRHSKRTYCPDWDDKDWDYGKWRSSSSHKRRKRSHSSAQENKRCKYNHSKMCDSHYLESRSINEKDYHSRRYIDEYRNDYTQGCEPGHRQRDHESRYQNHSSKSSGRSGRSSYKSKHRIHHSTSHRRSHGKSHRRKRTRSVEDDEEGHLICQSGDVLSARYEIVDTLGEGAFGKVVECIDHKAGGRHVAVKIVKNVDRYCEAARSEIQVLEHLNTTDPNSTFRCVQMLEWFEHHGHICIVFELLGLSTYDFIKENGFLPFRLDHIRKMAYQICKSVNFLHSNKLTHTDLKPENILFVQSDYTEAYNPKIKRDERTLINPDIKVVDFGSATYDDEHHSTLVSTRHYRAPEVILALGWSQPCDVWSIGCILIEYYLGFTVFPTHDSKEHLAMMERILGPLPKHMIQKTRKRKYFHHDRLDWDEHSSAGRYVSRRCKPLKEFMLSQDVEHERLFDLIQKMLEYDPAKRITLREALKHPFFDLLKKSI

CCOCCn1cc(C(=O)Nc2ccc(-n3nc(-c4cccnc4)cc3C(F)(F)F)cn2)ccc1=O [BI 1935]
residual activity [1]: 100% | residual activity [2]: 100% | residual activity [3]: 97% | residual activity [4]: 86% | inhibition [5]: -7.51% | residual activity [6]: 100% | residual activity [7]: 100% | residual activity [8]: 80% | residual activity [9]: 100% | residual activity [10]: 87% | residual activity [11]: 94% | residual activity [12]: 100% | residual activity [13]: 100% | residual activity [14]: 100% | residual activity [15]: 100% | residual activity [16]: 84% | residual activity [17]: 49% | residual activity [18]: 73% | residual activity [19]: 79% | residual activity [20]: 96% | inhibition [21]: 12.2% | residual activity [22]: 80% | residual activity [23]: 100% | residual activity [24]: 97% | residual activity [25]: 98% | residual activity [26]: 100% | residual activity [27]: 71% | inhibition [28]: -3% | residual activity [29]: 68% | residual activity [30]: 100% | residual activity [31]: 87% | residual activity [32]: 100% | residual activity [33]: 95% | residual activity [34]: 100% | residual activity [35]: 100% | residual activity [36]: 92% | residual activity [37]: 100% | residual activity [38]: 100% | residual activity [39]: 87% | residual activity [40]: 100% | residual activity [41]: 93% | residual activity [42]: 93% | residual activity [43]: 100% | residual activity [44]: 83%
